Test results reported in US4593104A, “2-halo-N-(azole-1-yl-methyl)-substituted acetanilides” (BASF Aktiengesellschaft, priority 1976, dated 1986).

Assays:
Assay in all cases: preemergence treatment in the greenhouse, % damage
Gossyp. hirs. = type: in vivo, Gosspyium hirsutum
Text: The vessels employed were plastic flowerpots having a volume of 300 cm^3; the substrate was a sandy loam containing about 1.5% humus. The seeds of the test plants (see Table 1) were sown shallow, and separated according to species. In the case of Cyperus esculentus, pregerminated tubers were planted. In the preemergence treatment, the active ingredients were then immediately applied to the surface of the soil. They were suspended or emulsified in water as the vehicle, and sprayed through atomizing nozzles. After the agents had been applied, the vessels were lightly sprinkler-irrigated to set germination and growth going, and to activate the chemical agents. The vessels were then covered with transparent plastic hoods until the plants had taken root. This cover ensured uniform germination of the test plants (to the extent that this was not impaired by the chemicals), and prevented readily volatile substances from evaporating.
For postemergence treatment, the plants were first grown to a height of from 3 to 10 cm, depending on their habit, before treated. Hoods were not placed on the pots. The experiments were set up in the greenhouse, hotter areas (25° to 40° C.) being preferred for heat-loving species, and 15° to 30° C. for plants from moderate climates. The experiments were carried out for from 4 to 6 weeks. During this period the plants were tended and their reaction to the various treatments was assessed. The following tables contain the substances investigated, the application rates in kg/ha of active ingredient, and the test plant species. Assessments were made on a 0 to 100 scale, 0 denoting no damage or normal emergence, and 100 denoting no emergence or complete destruction of at least the visible plant parts.

Glyc. max = type: in vivo, Glycine max
Outline: (§1)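 Ratings, on a 0 to 100 scale, show injury where 100 means no emergence or complete destruction of visible parts. Compounds in water were sprayed either onto freshly sown soil, which was then watered and hooded, or onto plants 3–10 cm tall. Observation lasted 4–6 weeks.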

Amar. retro. = type: in vivo
Outline: as §1

Sida spin. = type: in vivo
Outline: as §1

Panic. virg. = type: in vivo
Outline: as §1

Cenchr. ech. = type: in vivo
Outline: as §1

Lept. spp. = type: in vivo
Outline: as §1

Solanum nigrum = type: in vivo
Outline: as §1

Echin. c.g. = type: in vivo
Outline: as §1

Cyp. diff. = type: in vivo
Outline: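 Sow shallow in sandy loam, spray actives (water vehicle) on soil at once for preemergence, irrigate, hood until rooting; or grow to 3–10 cm and spray unhooded for postemergence. Keep 4–6 weeks at 15–40 °C by species, then score damage 0–100.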

Ipom. spp. = type: in vivo
Outline: as §1

## CCc1cccc(CC)c1N(Cn1nc(C)cc1C)C(=O)CCl [Compound 41]
Gossyp. hirs.; 0.25 kg/ha
  % damage: 0%
Gossyp. hirs.; 0.5 kg/ha
  % damage: 8%
Gossyp. hirs.; 1.0 kg/ha
  % damage: 8%
Gossyp. hirs.; 2.0 kg/ha
  % damage: 10%
Glyc. max; 0.25 kg/ha
  % damage: 0%
Glyc. max; 0.5 kg/ha
  % damage: 0%
Glyc. max; 1.0 kg/ha
  % damage: 0%
Glyc. max; 2.0 kg/ha
  % damage: 0%
Amar. retro.; 0.25 kg/ha
  % damage: 73%
Amar. retro.; 0.5 kg/ha
  % damage: 97%
Amar. retro.; 1.0 kg/ha
  % damage: 100%
Amar. retro.; 2.0 kg/ha
  % damage: 100%
Sida spin.; 1.0 kg/ha
  % damage: 45%
Sida spin.; 2.0 kg/ha
  % damage: 90%
Panic. virg.; 0.25 kg/ha
  % damage: 85%
Panic. virg.; 0.5 kg/ha
  % damage: 85%
Panic. virg.; 1.0 kg/ha
  % damage: 100%
Panic. virg.; 2.0 kg/ha
  % damage: 100%
Cenchr. ech.; 0.25 kg/ha
  % damage: 90%
Cenchr. ech.; 0.5 kg/ha
  % damage: 92%
Cenchr. ech.; 1.0 kg/ha
  % damage: 100%
Cenchr. ech.; 2.0 kg/ha
  % damage: 100%
Lept. spp.; 0.25 kg/ha
  % damage: 95%
Lept. spp.; 0.5 kg/ha
  % damage: 95%
Lept. spp.; 1.0 kg/ha
  % damage: 95%
Lept. spp.; 2.0 kg/ha
  % damage: 95%
Solanum nigrum; 0.25 kg/ha
  % damage: 70%
Solanum nigrum; 0.5 kg/ha
  % damage: 90%
Solanum nigrum; 1.0 kg/ha
  % damage: 98%
Solanum nigrum; 2.0 kg/ha
  % damage: 100%
Echin. c.g.; 0.25 kg/ha
  % damage: 95%
Echin. c.g.; 0.5 kg/ha
  % damage: 100%
Echin. c.g.; 1.0 kg/ha
  % damage: 100%
Echin. c.g.; 2.0 kg/ha
  % damage: 100%
Cyp. diff.; 0.25 kg/ha
  % damage: 100%
Cyp. diff.; 0.5 kg/ha
  % damage: 100%
Cyp. diff.; 1.0 kg/ha
  % damage: 100%
Ipom. spp.; 1.0 kg/ha
  % damage: 50%
Ipom. spp.; 2.0 kg/ha
  % damage: 90%
